Results: US5424303A, “Substituted aminophosphonate derivatives, process for their preparation and pharmaceutical compositions containing them” (Symphar SA, priority 1992, dated 1995)
Each block holds one compound with its values, some of them ahead of it.

Columns and labels:
[1] = tested on: plasma cholesterol; assay: Hypocholesterolemic activity, plasma cholesterol in mice fed test compound in diet; assay type: in vivo, OF1 strain mice; details: for plasma cholesterol values as compared to control: same experimental conditions, reference drugs; for plasma cholesterol values as compared to control / decrease plasma cholesterol by: mouse; for change in vivo at 180 mg/kg/day: Mus musculus, feed or water, 240 h, read-out: Plasma Cholesterol (% Control), 0.1% compound in food, 10 days, ca. 180 mg/kg daily, mouse; for decrease plasma cholesterol by: 0.1% in food, 10 days
Method: A. Hypocholesterolemic activity
Mouse fed a normal diet is a convenient model which was proposed by several authors (P. Olivier et al, Atherosclerosis 70, 107-114, 1988) ,for the screening for hypocholesterolemic drugs. OF1 strain mice (Iffa Credo) weighing between 25 and 35 g were divided into 5 groups of 5 animals each, four groups received the test compounds and the fifth group served as control. The test compounds were dissolved in diethyl ether. The ether solution was added to food to obtain a final concentration of 0.1%. compound in food. Ether was then evaporated at room temperature. The animals were fed for 10 days, the dally food intake corresponds to ca. 180 mg/kg. After an overnight fast, they were sacrificed by decapitation under ether anesthesia. Blood samples were collected using EDTA as anticoagulant.
Plasma cholesterol was measured by an enzymatic test (DIAMED, Morat, Switzerland). The mean values of each group receiving the test or reference compounds were expressed as percent of mean value of the contemporary control.

[2] = tested on: lipid peroxidation (rat liver homogenate); assay: Antioxidant activity, inhibition of iron induced lipid peroxidation in liver homogenate; assay type: biochemical, Wistar rat; details: FeSO4, 37° C., 2 h; <25 μM where IC50 was not determined
Method: The liver of a Wistar rat anesthetized with ether was collected and homogenized in 4 volumes of phosphate buffer (+4° C., pH 7.4) by means of a Potter. After centrifugation at 2000 rpm for 10 min the supernatant obtained was kept at +4° C. Lipid peroxidation was carried out in presence of FeSOhd according to the method described by A. T. Quitaniha et at, Ann.
The mixture contained 1.7 ml phosphate buffer, 0.2 ml homogenate and 0.1 ml of a 2 mM FeSO4 solution. The test compounds were added in a volume of 61 μl of ethanol or DMSO. Oxydation was carried out at 37° C. for 2 h and was stopped by the addition of 20 μl of 2% ethanolic solution of BHT.

IC50 [2]: 5 µM
SMILES: Cc1cc(C(C)(C)C)c(O)c(C(C)(C)C)c1 [BHT, 2,6-di-tert-butyl-4-methylphenol, reference compound]
hypocholesterolemic activity (in words) ([1]; this model (mouse)): no hypocholesterolemic activity

SMILES: CCOC(=O)C(C)(C)Oc1ccc(Cl)cc1 [Clofibrate, reference compound]
plasma cholesterol values as compared to control [1]: +4%

SMILES: CCOP(=O)(OCC)C(NC(C)(C)C)c1cc(C(C)(C)C)c(O)c(C(C)(C)C)c1 (centres unmarked) [Compound 1]
change in vivo at 180 mg/kg/day [1]: 8% | IC50 [2]: > 25 µM

SMILES: CCCCCNC(c1cc(C(C)(C)C)c(O)c(C(C)(C)C)c1)P(=O)(OCC)OCC (centres unmarked) [Compound 2]
change in vivo at 180 mg/kg/day [1]: -8% | IC50 [2]: 2.5 µM

SMILES: CCOP(=O)(OCC)C(Nc1ccccc1)c1cc(C(C)(C)C)c(O)c(C(C)(C)C)c1 (centres unmarked) [Compound 3]
change in vivo at 180 mg/kg/day [1]: -30% | decrease plasma cholesterol by [1]: more than 30% | IC50 [2]: 5.1 µM

SMILES: CCOP(=O)(OCC)C(Nc1ccc(O)cc1)c1cc(C(C)(C)C)c(O)c(C(C)(C)C)c1 (centres unmarked) [Compound 4]
change in vivo at 180 mg/kg/day [1]: -15% | IC50 [2]: 4.1 µM

SMILES: CCOP(=O)(OCC)C(Nc1ccc(O)c(C)c1)c1cc(C(C)(C)C)c(O)c(C(C)(C)C)c1 (centres unmarked) [Compound 5]
change in vivo at 180 mg/kg/day [1]: 2% | IC50 [2]: 1.3 µM

SMILES: CCOP(=O)(OCC)C(Nc1ccc(Cl)cc1)c1cc(C(C)(C)C)c(O)c(C(C)(C)C)c1 (centres unmarked) [Compound 6]
change in vivo at 180 mg/kg/day [1]: -17% | IC50 [2]: < 25 µM

SMILES: CCOP(=O)(OCC)C(Nc1ccc(OC)cc1)c1cc(C(C)(C)C)c(O)c(C(C)(C)C)c1 (stereo not drawn) [Compound 7, Diethyl α-(3,5-di-tert-butyl-4-hydroxyphenyl)-N-(4-methoxyphenyl)-aminomethylphosphonate]
change in vivo at 180 mg/kg/day [1]: -47% | decrease plasma cholesterol by [1]: more than 30% | IC50 [2]: < 25 µM

SMILES: CCOP(=O)(OCC)C(Nc1cccc(C)c1)c1cc(C(C)(C)C)c(O)c(C(C)(C)C)c1 (centres unmarked) [Compound 8]
IC50 [2]: < 25 µM

SMILES: CCOc1ccc(NC(c2cc(C(C)(C)C)c(O)c(C(C)(C)C)c2)P(=O)(OCC)OCC)cc1 (centres unmarked) [Compound 9]
change in vivo at 180 mg/kg/day [1]: -31% | decrease plasma cholesterol by [1]: more than 30% | IC50 [2]: < 25 µM

SMILES: CCCCCc1ccc(NC(c2cc(C(C)(C)C)c(O)c(C(C)(C)C)c2)P(=O)(OCC)OCC)cc1 (centres unmarked) [Compound 10]
change in vivo at 180 mg/kg/day [1]: 11% | IC50 [2]: 2.9 µM

SMILES: CCOP(=O)(OCC)C(Nc1ccc(N2C(=O)c3ccc(Cl)cc3C2=O)c(C)c1)c1cc(C(C)(C)C)c(O)c(C(C)(C)C)c1 (centres unmarked) [Compound 11]
IC50 [2]: 2.7 µM

SMILES: CCOP(=O)(OCC)C(NCc1ccccc1)c1cc(C(C)(C)C)c(O)c(C(C)(C)C)c1 (centres unmarked) [Compound 12]
change in vivo at 180 mg/kg/day [1]: -23% | IC50 [2]: 0.7 µM

SMILES: CCOP(=O)(OCC)C(NCCc1ccccc1)c1cc(C(C)(C)C)c(O)c(C(C)(C)C)c1 (centres unmarked) [Compound 13]
change in vivo at 180 mg/kg/day [1]: -28% | IC50 [2]: 4.9 µM

SMILES: CCOP(=O)(OCC)C(NCCc1ccc(C)cc1)c1cc(C(C)(C)C)c(O)c(C(C)(C)C)c1 (centres unmarked) [Compound 14]
change in vivo at 180 mg/kg/day [1]: -6% | IC50 [2]: < 25 µM

SMILES: CCOP(=O)(OCC)C(NCCc1ccc(O)cc1)c1cc(C(C)(C)C)c(O)c(C(C)(C)C)c1 (centres unmarked) [Compound 15]
change in vivo at 180 mg/kg/day [1]: -18% | IC50 [2]: < 25 µM

SMILES: COP(=O)(OC)C(NCCc1ccc(Cl)cc1)c1cc(C(C)(C)C)c(O)c(C(C)(C)C)c1 (centres unmarked) [Compound 16]
change in vivo at 180 mg/kg/day [1]: -28% | IC50 [2]: 4.9 µM

SMILES: CCOP(=O)(OCC)C(NCCc1ccc(Cl)cc1)c1cc(C(C)(C)C)c(O)c(C(C)(C)C)c1 (stereo not drawn) [Compound 17, Diethyl α-(3,5-di-tert-butyl-4-hydroxyphenyl)-N-[2-(4-chlorophenyl)ethyl]-aminomethylphosphonate]
change in vivo at 180 mg/kg/day [1]: -43% | decrease plasma cholesterol by [1]: more than 30% | IC50 [2]: 5.3 µM

SMILES: CCOP(=O)(OCC)C(NCCN1CCCCC1)c1cc(C(C)(C)C)c(O)c(C(C)(C)C)c1 (centres unmarked) [Compound 34]
change in vivo at 180 mg/kg/day [1]: -5%

SMILES: CCOP(=O)(OCC)C(NCc1cc(C(C)(C)C)c(O)c(C(C)(C)C)c1)c1cc(C(C)(C)C)c(O)c(C(C)(C)C)c1 (stereo not drawn) [Compound 40, Diethyl α-(3,5-di-tert-butyl-4-hydroxyphenyl)-N-(3,5-di-tert-butyl-4-hydroxybenzyl)-aminomethylphosphonate]
change in vivo at 180 mg/kg/day [1]: -25%

SMILES: CCOP(=O)(OCC)C(c1cc(C(C)(C)C)c(O)c(C(C)(C)C)c1)N(Cc1ccccc1)C(C)=O (centres unmarked) [Compound 51]
IC50 [2]: < 25 µM

SMILES: CCOP(=O)(OCC)C(c1cc(C(C)(C)C)c(O)c(C(C)(C)C)c1)N(Cc1ccccc1)C(=O)C(F)(F)F (centres unmarked) [Compound 52]
IC50 [2]: < 25 µM

SMILES: CCOP(=O)(OCC)C(c1cc(C(C)(C)C)c(O)c(C(C)(C)C)c1)N(CCc1ccccc1)C(C)=O (centres unmarked) [Compound 53]
IC50 [2]: < 25 µM

SMILES: CCOP(=O)(OCC)C(c1cc(C(C)(C)C)c(O)c(C(C)(C)C)c1)N(CCc1ccccc1)C(=O)C(F)(F)F (centres unmarked) [Compound 54]
IC50 [2]: < 25 µM

SMILES: CCCCOP(=O)(OCCCC)C(c1cc(C(C)(C)C)c(O)c(C(C)(C)C)c1)N(CCc1ccc(Cl)cc1)C(=O)C(F)(F)F (centres unmarked) [Compound 55]
IC50 [2]: > 25 µM

SMILES: CCOP(=O)(OCC)C(c1cc(C(C)(C)C)c(O)c(C(C)(C)C)c1)N(C(=O)C(F)(F)F)C(Cc1ccccc1)c1ccccc1 (centres unmarked) [Compound 56]
IC50 [2]: < 25 µM

SMILES: CCOP(=O)(OCC)C(c1cc(C(C)(C)C)c(O)c(C(C)(C)C)c1)N(CCOc1ccccc1)C(=O)C(F)(F)F (centres unmarked) [Compound 57]
IC50 [2]: < 25 µM

SMILES: CCCCCc1ccc(N(C(=O)C(F)(F)F)C(c2cc(C(C)(C)C)c(O)c(C(C)(C)C)c2)P(=O)(OCC)OCC)cc1 (centres unmarked) [Compound 58]
IC50 [2]: < 25 µM

SMILES: CCOP(=O)(OCC)C(c1cc(C(C)(C)C)c(O)c(C(C)(C)C)c1)N(CCCc1ccccc1)C(=O)C(F)(F)F (stereo not drawn) [Compound 64, Diethyl α-(3,5-di-tert-butyl-4-hydroxyphenyl)-N-trifluoroacetyl-N-(3-phenylpropyl)-aminomethylphosphonate]
IC50 [2]: < 25 µM

SMILES: CCOP(=O)(OCC)C(c1cc(C(C)(C)C)c(O)c(C(C)(C)C)c1)N(CCCCc1ccccc1)C(=O)C(F)(F)F (centres unmarked) [Compound 66]
IC50 [2]: < 25 µM

SMILES: CCCCOc1ccc(C(NCCc2ccccc2)P(=O)(OCC)OCC)cc1 (centres unmarked) [Compound 69]
change in vivo at 180 mg/kg/day [1]: 2%

SMILES: CCOP(=O)(OCC)C(N)c1cc(C(C)(C)C)c(O)c(C(C)(C)C)c1 (stereo not drawn) [Compound 83, Diethyl α-(3,5-di-tert-butyl4-hydroxyphenyl)-aminomethyl-phosphonate]
change in vivo at 180 mg/kg/day [1]: 4%

SMILES: C=CCNC(c1cc(C(C)(C)C)c(O)c(C(C)(C)C)c1)P(=O)(OCC)OCC (stereo not drawn) [Compound 84, Diethyl α-(3,5-di-tert-butyl-4-hydroxyphenyl)-N-allyl-aminomethylphosphonate]
change in vivo at 180 mg/kg/day [1]: -19%

SMILES: CCOP(=O)(OCC)C(NC(=O)OCc1ccccc1)c1cc(C(C)(C)C)c(O)c(C(C)(C)C)c1 (stereo not drawn) [Compound 85, Diethyl α-(3,5-di-tert-butyl-4-hydroxyphenyl)-N-benzyloxycarbonyl-aminomethylphosphonate]
change in vivo at 180 mg/kg/day [1]: 0%

SMILES: CCOP(=O)(OCC)C(NCc1ccncc1)c1cc(C(C)(C)C)c(O)c(C(C)(C)C)c1 (centres unmarked) [Compound 86]
change in vivo at 180 mg/kg/day [1]: -15%

SMILES: CCOP(=O)(OCC)C(NC1COC(C)(C)OC1c1ccccc1)c1cc(C(C)(C)C)c(O)c(C(C)(C)C)c1 (centres unmarked) [Compound 91]
change in vivo at 180 mg/kg/day [1]: -18%

SMILES: CC(C)OC(=O)C(C)(C)Oc1ccc(C(=O)c2ccc(Cl)cc2)cc1 [Fenofibrate, reference compound]
plasma cholesterol values as compared to control [1]: -26%

SMILES: Cc1ccc(C)c(OCCCC(C)(C)C(=O)O)c1 [Gemfibrozil, reference compound]
plasma cholesterol values as compared to control [1]: -7%
